Results: ChEMBL document CHEMBL3392922, “MMV box screening in the Dd2 P. falciparum strain”

System: Plasmodium falciparum
Experiment: MMV: IC50 determined against P. falciparum Dd2-luc strain using a Malaria Sybr Green I Fluorescence assay. Starting conditions were 1% trophozoite synchronised parasites at 2% haematocrit. Fluorescence detection completed after 48hr incubation at 37 degrees C under 1% O2, 3% CO2 and balance N2.
Assay type: functional, organism-based
Conditions: Dd2, 48 h

Row | Compound | IC50
1 | O=C(CCc1ccccc1)c1ccccc1OCC(O)CN1CCCCC1 (centres undefined) | 1.09 µM
2 | COc1ccc(CCn2c(=N)c(C(=O)NCc3cccnc3)cc3c(=O)n4cccc(C)c4nc32)cc1 | 0.272 µM
3 | CCOc1ccc2c(c1)CN(Cc1ccc(Cl)cc1)CO2 | 0.617 µM
4 | COc1ccc2c(=O)cc(C(Cl)(Cl)Cl)oc2c1 | 0.959 µM
5 | COc1cccc(O)c1CN1CCC2(CCCN(Cc3ccc(F)cc3)C2)C1 (centres undefined) | 0.502 µM
6 | O=C(Nc1ccccc1O)c1ccc(-c2ccc(Cl)cc2Cl)o1 | 2.99 µM
7 | C=C(C)CCC(C)N1CCC(N2CCC(C(=O)NCCc3ccccc3)CC2)CC1 (centres undefined) | 1.46 µM
8 | COc1cccc(Cn2c(Oc3ccccc3)nc3c2c(=O)n(C)c(=O)n3C)c1 | 1.15 µM
9 | COc1ccc(-c2nc(NC(=O)CS(=O)(=O)c3ccc(F)cc3)sc2C)cc1 | 0.515 µM
10 | CC(C)(C)CC(C)(C)NCC(O)COc1ccc2c(c1)CCC2 (centres undefined) | 1.76 µM
11 | CCOc1ccc(CCNC(=O)c2cccs2)cc1OCC | 2.72 µM
12 | O=C(Nc1ccc(F)c(Cl)c1)Nc1ccc(Cl)c(Cl)c1 | 1.83 µM
13 | c1ccc(CNc2nc(Nc3ccccc3)nc3ccccc23)cc1 | 0.897 µM
14 | COc1cccc(C(=O)Nc2ccc(-c3nc4ccccc4[nH]3)cc2)c1 | 0.832 µM
15 | O=c1c2c([nH]c3ccccc13)CCCC2 | 0.876 µM
16 | CCN(CC)CCNc1ccnc2cc3ccccc3cc12 | 0.465 µM
17 | O=C1c2ccccc2C2=Nc3ccccc3SC(c3cccc(F)c3)C12 (centres undefined) | 0.766 µM
18 | COc1ccc(-c2cc3c(nn2)-c2ccccc2C3=O)cc1 | 0.731 µM
19 | COCCNCC(O)Cn1c2ccc(Cl)cc2c2cc(Cl)ccc21 (centres undefined) | 0.652 µM
20 | OC(CNCc1ccccc1)Cn1c2ccccc2c2ccccc21 (centres undefined) | 1.1 µM
21 | CCCCN(CCCC)S(=O)(=O)c1ccc(NC(=O)c2ccco2)cc1 | 1.16 µM
22 | O=C(NC1CCN(Cc2ccccc2)CC1)c1cc(-c2cccnc2)nc2ccc(Cl)cc12 | 1.23 µM
23 | COc1ccc(C2Sc3ccccc3N=C3C2=C(O)c2ccccc23)cc1 (centres undefined) | 0.723 µM

Row | Compound | IC50
24 | COc1ccc(C2c3ccc4ccccc4c3Oc3ncn(CCCN(C)C)c(=N)c32)cc1 (centres undefined) | 0.443 µM
25 | COc1ccccc1CNC(=O)CCn1c(=O)[nH]c2ccsc2c1=O | 0.977 µM
26 | CCOc1ccc(/C=C/c2nc(=O)c3ccccc3o2)cc1 | 0.74 µM
27 | COc1ccc(CCNC(=O)c2cc(S(=O)(=O)N3CC(C)CC(C)C3)ccc2Sc2ccc(F)cc2)cc1OC (centres undefined) | 1.33 µM
28 | CCc1ccc(CNCC(O)c2ccccc2)cc1 (centres undefined) | 1.87 µM
29 | Oc1ccc(Br)cc1CN1CCN(Cc2ccc(Cl)cc2)CC1 | 1.52 µM
30 | O=C(Nc1ccc(Cl)cc1C(=O)Nc1ccncc1)c1ccc(Cl)cc1Cl | 0.866 µM
31 | CCOC(=O)c1cnc2ccc(OC)cc2c1Nc1ccc(N2CCN(C)CC2)cc1 | 0.769 µM
32 | COc1ccc2c(c1)OC(O)(C(F)(F)C(F)(F)F)CC2=O (centres undefined) | 0.369 µM
33 | COc1ccc(Nc2nc(N/N=C/c3ccc(O)cc3)nc(Nc3ccc([N+](=O)[O-])cc3)n2)cc1 | 1.53 µM
34 | Cc1ccc2nc(C)cc(Nc3cccc(C(F)(F)F)c3)c2c1 | 1.39 µM
35 | Cc1ccc(-c2nc3ccccc3o2)cc1NCc1cc(Cc2ccccc2)ccc1O | 1.7 µM
36 | CC(NCc1ccccc1)c1cc(Cl)ccc1O (centres undefined) | 0.498 µM
37 | O=C(Nc1ccc(CN2CCOCC2)cc1)c1ccc(-c2cc(Cl)ccc2Cl)o1 | 1.74 µM
38 | CCn1nc(-c2ccc(C(=O)OC)cc2)nc2c(=O)n(C)c(=O)nc1-2 | 0.691 µM
39 | Nc1nc(Nc2cccc(F)c2)nc2ccccc12 | 2.37 µM
40 | CCC(C)NCC(O)(c1ccc(Cl)cc1)c1ccc(Cl)cc1 (centres undefined) | 0.551 µM
41 | CCOc1c(Cl)cc(CNCC(O)c2ccccc2)cc1OC (centres undefined) | 1.3 µM
42 | COc1ccc(C(O)(CCC(C)C)C(CN2CCOCC2)c2ccc(Cl)cc2)cc1 (centres undefined) | 3.55 µM
43 | COc1ccc(CCN2C(=O)c3[nH]nc(-c4cc(Cl)c(C)cc4O)c3C2c2ccccc2F)cc1 (centres undefined) | 3.19 µM
44 | COCCNC(=O)c1ccc(OC2CCN(Cc3ccc(F)c(F)c3)CC2)c(Cl)c1 | 0.754 µM
45 | Oc1ccc(Cl)cc1CNc1nc2ccccc2[nH]1 | 1 µM
46 | O=C(Nc1ccc(Cl)c(Cl)c1)Nc1ccc(Cl)c(Cl)c1 | 3.88 µM

Row | Compound | IC50
47 | COc1cc(CNCCc2ccc(Cl)cc2)cc(OC)c1O | 1.87 µM
48 | Oc1ccccc1CN1CCC2(CCCN(Cc3ccccc3F)C2)C1 (centres undefined) | 0.647 µM
49 | CN(C)c1ccc(-c2nc3cc(N)ccc3[nH]2)cc1 | 1.24 µM
50 | CN(C)c1ccc(N2C(N)=NC(N)=NC2(C)C)cc1 | 0.158 µM
51 | CCOc1ccc2nc(C)cc(Nc3ccc(Br)cc3)c2c1 | 0.791 µM
52 | CCCCCCC(O)(c1ccc(F)cc1)C(CN1CCOCC1)c1ccccc1 (centres undefined) | 3.42 µM
53 | COc1cccc(NC(=O)Cn2c(C)c(C#N)c3ccccc32)c1 | 1.27 µM
54 | COc1ccc2c(c1OC)C(=O)N1c3ccccc3N=C(c3ccc(C)cc3)CC21 (centres undefined) | 1.69 µM
55 | CC(C)(C)c1ccc(C2CC3=Nc4ccccc4N(C(=O)c4ccccc4Cl)C(c4ccc(F)cc4)C3=C(O)C2)cc1 (centres undefined) | 1.99 µM
56 | Cc1c(C)n(CC(O)CNC2CCCCC2C)c2ccccc12 (centres undefined) | 0.483 µM
57 | CCN(CC)CCn1c(=N)n(CC(O)c2ccc(Cl)c(Cl)c2)c2ccccc21 (centres undefined) | 0.404 µM
58 | COc1ccccc1N1C(=N)SC(=Cc2ccc(OCc3ccccc3F)cc2)C1=O | 0.809 µM
59 | Cc1ccc(C)c(Cn2c(N3CCC(C(=O)NCc4cccs4)CC3)nc3ccccc32)c1 | 1.16 µM
60 | COc1ccc(CNC2CCN(c3ccc(NC(=O)c4cccc(Cl)c4)cc3)CC2)cc1OC | 1.19 µM
61 | CC1=C(CC(=O)c2cccc([N+](=O)[O-])c2)C(=O)c2ccccc2C1=O | 0.129 µM
62 | Oc1c(CN2CCN(c3ccccc3F)CC2)cc(Br)c2cccnc12 | 1.34 µM
63 | Clc1cc(Br)ccc1-c1ccc(CNCC2CCNCC2)o1 | 0.596 µM
64 | Cc1cc(N(C)C)nc(Nc2ccc(NC(=O)Nc3ccccc3)cc2)n1 | 0.973 µM
65 | OC(CNC1CCCCC1)Cn1c2ccccc2c2ccccc21 (centres undefined) | 0.278 µM
66 | FC(F)(F)c1cccc(Nc2nc(-c3ccccc3)nc3ncccc23)c1 | 0.885 µM
67 | Cc1ccc(CN2CCC(C(=O)Nc3ccc(-c4cc5ccccc5[nH]4)cc3)CC2)o1 | 0.459 µM
68 | CCCCC(O)(c1ccc(Cl)cc1)C(CN1CCOCC1)c1ccc(Cl)cc1 (centres undefined) | 3.57 µM
69 | CCCCOc1ccc(C(=O)Nc2cc(C)on2)cc1 | 0.783 µM

Row | Compound | IC50
70 | OC(CNC1CCCC1)Cn1c2ccccc2c2ccccc21 (centres undefined) | 0.453 µM
71 | CCOC(=O)c1cnc2ccc(Cl)cc2c1NCCCN(C)C | 1.18 µM
72 | COc1ccc(CNC(=O)c2cc3c(=O)n4ccccc4nc3n(CCc3ccccc3)c2=N)cc1 | 1.23 µM
73 | CC(=O)Nc1nnc(SCc2c(C)cc(C(C)(C)C)cc2C)s1 | 0.794 µM
74 | CN(C)c1ccc(C(O)(c2ccc(N(C)C)cc2)c2ccc(N(C)C)cc2)cc1 [METHYLROSANILINE] | 0.218 µM
75 | COc1ccc(OC)c(C2C3=C(CC(C)(C)CC3=O)N(c3ccc(Cl)c(Cl)c3)C3=C2C(=O)CC(C)(C)C3)c1 | 2.98 µM
76 | FC(F)(F)c1cccc(CNC2CCN(CCc3ccccc3)CC2)c1 | 0.49 µM
77 | COc1cc(-c2nc(-c3ccccc3)c(-c3ccccc3)[nH]2)cc(OC)c1O | 1.54 µM
78 | Cc1cc(C)c2c(c1)OCN(Cc1ccccc1Cl)C2 | 0.297 µM
79 | CCOc1ccc(C2N(C)c3ccccc3N2C)cc1 | 0.904 µM
80 | COc1ccc(CCN2CCC(CN(C)Cc3cnn(-c4ccccc4)c3)CC2)cc1 | 2.68 µM
81 | CC(C)CCNCC(O)Cn1c2ccccc2c2ccccc21 (centres undefined) | 0.907 µM
82 | CCOc1cccc(C(=O)Nc2ccc(-c3nc4ccccc4[nH]3)cc2)c1 | 1.21 µM
83 | CCN(Cc1ccccc1)C1CCN(Cc2cc(Br)ccc2O)CC1 | 0.603 µM
84 | CCCCc1ccc(NS(=O)(=O)c2cc3c4c(c2)CCN4C(=O)CC3)cc1 | 3.68 µM
85 | Cc1cc(NC(=O)c2cccc(C(F)(F)F)c2)n(-c2nc(-c3ccc4c(c3)OCO4)cs2)n1 | 2.18 µM
86 | Cc1cc(NC(=O)c2ccc(-c3ccccc3)cc2)no1 | 0.775 µM
87 | COc1ccc(-c2c(C)nn3c(N)c(C#N)cnc23)cc1OC | 0.305 µM
88 | CN(C)CCCNc1c2ccccc2nc2ccccc12 | 0.237 µM
89 | CCOc1cc(Cl)c(C(C)NC(=O)c2ccccc2)cc1OCC (centres undefined) | 0.828 µM
90 | CCN(CC)c1cc(C)c2cc(NC(=O)c3cccc(OC)c3)ccc2n1 | 2.77 µM
91 | COc1ccc2nc(C)cc(Nc3ccccc3O)c2c1 | 1.1 µM
92 | CCOC(=O)C1=C(C)N=c2sc(=Cc3cc(Cl)ccc3O)c(=O)n2C1c1ccc(OC)cc1 (centres undefined) | 0.527 µM

Row | Compound | IC50
93 | Cc1cc(Nc2ccc(Cl)cc2)n2nc(C(F)(F)F)nc2n1 | 0.302 µM
94 | Oc1ccc(-c2nc(-c3ccc4oc5ccc(-c6[nH]c(-c7ccc(O)cc7)nc6-c6ccccc6)cc5c4c3)c(-c3ccccc3)[nH]2)cc1 | 0.683 µM
95 | O=C1CC(O)(C(F)(F)C(F)(F)F)Oc2ccccc21 (centres undefined) | 1.03 µM
96 | CCOc1ccc(Nc2ccnc3cc(Cl)ccc23)cc1 | 0.768 µM
97 | CC1CN(C(=O)c2sc3ccccc3c2Cl)CC(C)O1 (centres undefined) | 0.104 µM
98 | Cc1ccc(Nc2nc(N)c3ccccc3n2)cc1Cl | 1.1 µM
99 | CCOC(=O)c1cnc2ccc(CC)cc2c1O | 0.647 µM
100 | CCOC(=O)c1ccc2nc(-c3ccccc3)cc(O)c2c1 | 0.72 µM
101 | Cc1ccnc(NC(c2cccc(OCc3ccccc3)c2)c2ccc3cccnc3c2O)c1 (centres undefined) | 0.963 µM
102 | COc1ccccc1N1CCN(C(CNS(=O)(=O)c2ccc(Cl)cc2)c2cccnc2)CC1 (centres undefined) | 0.913 µM
103 | Nc1ccc(-c2nc3cc(Oc4ccc(Oc5ccc6[nH]c(-c7ccc(N)cc7)nc6c5)cc4)ccc3[nH]2)cc1 | 0.315 µM
104 | CCN(CC)S(=O)(=O)c1ccc(-c2csc(Nc3ccc(C)c(C)c3)n2)cc1 | 0.933 µM
105 | O=C(NC1CCN(Cc2ccccc2)CC1)c1cc2nc(-c3ccc(Cl)s3)cc(C(F)(F)F)n2n1 | 5.17 µM
106 | Cc1c(C)n(Cc2ccc(F)cc2)c2ccc(C(=O)NCc3ccco3)cc12 | 0.0827 µM
107 | CCOc1c(Cl)cc(CNC(C)C(O)c2ccccc2)cc1OC (centres undefined) | 1.36 µM
108 | CCOc1ccc(N2C(N)=NC(N)=NC2(C)C)cc1 | 8.13 µM
109 | CCN(CC)CCNc1ccnc2cc(Cl)ccc12 | 0.044 µM
110 | Cc1cc(Nc2ccc3ccccc3c2)n2ncnc2n1 | 0.156 µM
111 | CC(=O)NCCc1nc2ccccc2n1Cc1ccc(C(C)C)cc1 | 1.49 µM
112 | COc1cccc(NC(=O)[C@H](C(C)C)n2c(=O)[nH]c3ccccc3c2=O)c1 | 0.158 µM
113 | OCCNc1nc(Nc2ccc(Cl)c(Cl)c2)nc2ccccc12 | 0.419 µM
114 | CCC(=O)Nc1nnc(Cc2ccc(OC)c(OC)c2)s1 | 0.705 µM
